Test results taken from patent US11219625B2, “Inhibitors of N-linked glycosylation and methods using same” (YALE UNIVERSITY, priority 2015, dated 2022).

Key:
PC9 cells = experiment: MTT proliferation assay, PC9; format: cell-based; settings: PC9, 10 μM NGI-1, after 3 days, p<0.001
Experimental: FIGS. 4A-4H illustrate the finding that NGI-1 blocks RTK driven proliferation. FIG. 4A illustrates western blot analysis of EGFR phosphorylation (Y1173) and gel mobility in PC9 (EGFR-mutant) and A549 (k-ras mutant) NSCLC cells after 10 μM NGI-1 treatment for 24 h. […] Actin expression was used as a control for protein loading. FIG. 4B illustrates MTT assays results of PC9 following treatment with 10 μM NGI-1 or 1 μM tunicamycin for a total of 5 d. Relative proliferation id reported in fold increase from day 0. FIG. 4C illustrates MTT assays results of A549 following treatment with 10 μM NGI-1 or 1 μM tunicamycin for a total of 5 d. Relative proliferation id reported in fold increase from day 0. FIG. 4D illustrates protein phosphorylation profiles of PC9 cells analyzed by phospho-protein array to assess the response of PC9 to 10 μM NGI-1 for 24 h. FIG. 4E illustrates protein phosphorylation profiles of A549 cells analyzed by phospho-protein array to assess the response of A549 to 10 μM NGI-1 for 24 h. […]
Growth rates were determined by CellTiter 96 NonRadioactive Cell Proliferation Assay (Promega; Madison, Wis. USA) according to the manufacturer's directions. […] Cell numbers were estimated after 0, 3, and 5 days by adding MTT [(3-(4,5-Dimethylthiazol-2-yl)-2,5-diphenyltetrazolium bromide] reagent to the wells 4 hours before taking the spectrophotometric reading (absorbance at 570 nm).

A549 cells = experiment: Apoptosis by flow cytometry (Annexin-V, 7-AAD), A549; format: cell-based; settings: A549, NGI-1 10 μM for 2 or 5 days, or Tn 1 μM
Experimental: Analysis of apoptosis susceptibility in A549 and PC9 NSCLC cell lines followed treatment with NGI-1 10 μM or Tn 1 μM for 2 days was done by flow cytometry after staining the cells with Annexin-V (early apoptosis) and 7-AAD (viability dye). […] FIG. 9C: Western blot of BIP protein for A549 and PC9 cells after treatment with 10 μM NGI-1 for 6, 12 or 24 h. The expression of GAPDH was used as a loading control.

With Cc1cnc(NC(=O)c2cc(S(=O)(=O)N(C)C)ccc2N2CCCC2)s1 [NGI-1, 5-(N,N-Dimethylsulfamoyl)-N-(5-methylthiazol-2-yl)-2-(pyrrolidin-1-yl)benzamide] the “reduction of cell proliferation, MTT” value (PC9 cells) was “more than 90%” and the induction of apoptosis (A549 cells) was “did not induce apoptosis”.
